Laboratory results from ChEMBL document CHEMBL3585319 (J Med Chem, 2015).
Calls of active or inactive are those of the source. The calls are words filed in the database; no cut-off is given here.

Experiments:
[1] = molecular target: T1, Sodium-dependent serotonin transporter (Homo sapiens, UniProt P31645); test: Inhibition of wild type human SERT expressed in HEK293 GripTite cells pre-incubated for 5 mins followed by [3H]5-HT addition by [3H]5-HT uptake assay; assay type: cell-based
Target sequence in this assay (P31645 whole entry): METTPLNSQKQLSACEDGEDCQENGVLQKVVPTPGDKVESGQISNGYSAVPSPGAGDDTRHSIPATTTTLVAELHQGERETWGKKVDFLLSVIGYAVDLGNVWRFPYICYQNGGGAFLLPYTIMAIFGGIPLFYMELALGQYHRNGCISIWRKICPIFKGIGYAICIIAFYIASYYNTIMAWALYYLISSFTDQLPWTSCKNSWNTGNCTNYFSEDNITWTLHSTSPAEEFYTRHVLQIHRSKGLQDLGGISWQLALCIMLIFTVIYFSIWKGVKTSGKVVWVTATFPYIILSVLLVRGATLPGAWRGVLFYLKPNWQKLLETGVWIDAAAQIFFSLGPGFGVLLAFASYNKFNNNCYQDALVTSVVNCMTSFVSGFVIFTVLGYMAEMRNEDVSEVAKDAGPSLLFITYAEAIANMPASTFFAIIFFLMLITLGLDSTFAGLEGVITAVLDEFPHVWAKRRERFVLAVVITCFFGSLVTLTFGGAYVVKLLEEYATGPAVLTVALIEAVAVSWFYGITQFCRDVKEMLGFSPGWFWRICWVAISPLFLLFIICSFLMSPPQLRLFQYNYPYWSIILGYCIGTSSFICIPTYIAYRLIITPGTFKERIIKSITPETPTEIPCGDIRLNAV

[2] = molecular target: T1, Sodium-dependent serotonin transporter; test: (§1) Irreversible photoaffinity labeling of hemagglutinin-tagged human SERT expressed in LLCPK1 cells at 10 nM incubated for 1.5 hrs at 4 degC followed by irradiation with shortwave ultraviolet light for 5 mins by SDS-PAGE and autoradiography method; assay type: cell-based; conditions: LLC-PK1, tested as the 125I-labelled form
Target sequence in this assay (P31645 whole entry, looked up): as the sequence (P31645 whole entry) above

[3] = molecular target: Sodium-dependent serotonin transporter (Homo sapiens, UniProt P31645, S438T); assay type: cell-based, HEK293
[4] = molecular target: T1, Sodium-dependent serotonin transporter; test: as §1, with “cells assessed as 10 uM (s)-citalopram-induced blocking of compound binding” for “cells”; assay type: cell-based; conditions: LLC-PK1, tested as the 125I-labelled form
Target sequence in this assay (P31645 whole entry, looked up): as the sequence (P31645 whole entry) above

Homo sapiens = organism: Homo sapiens; test: Resistance index, ratio of Ki for human SERT S438T mutant expressed in HEK293 GripTite cells to Ki for wild type human SERT expressed in HEK293 GripTite cells; assay type: cell-based

Sequence of Sodium-dependent serotonin transporter (Homo sapiens, UniProt P31645, S438T) (P31645 whole entry S438T): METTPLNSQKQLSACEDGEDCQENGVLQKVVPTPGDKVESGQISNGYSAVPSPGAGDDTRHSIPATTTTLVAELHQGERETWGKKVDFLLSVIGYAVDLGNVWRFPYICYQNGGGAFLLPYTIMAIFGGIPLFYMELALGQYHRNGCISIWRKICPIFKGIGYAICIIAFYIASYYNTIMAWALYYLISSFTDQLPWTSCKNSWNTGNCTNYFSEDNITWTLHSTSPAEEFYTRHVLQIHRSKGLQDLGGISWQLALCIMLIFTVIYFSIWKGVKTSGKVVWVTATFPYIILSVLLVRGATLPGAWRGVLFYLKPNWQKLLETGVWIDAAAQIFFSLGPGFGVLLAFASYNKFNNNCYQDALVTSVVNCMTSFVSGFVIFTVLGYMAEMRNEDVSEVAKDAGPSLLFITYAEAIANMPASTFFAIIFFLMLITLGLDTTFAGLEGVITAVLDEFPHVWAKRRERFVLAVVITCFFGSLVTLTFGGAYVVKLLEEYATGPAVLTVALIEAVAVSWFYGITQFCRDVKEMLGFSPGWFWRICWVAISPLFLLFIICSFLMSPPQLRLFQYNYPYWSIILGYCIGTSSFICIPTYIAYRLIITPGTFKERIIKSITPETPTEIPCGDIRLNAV

Structure (SMILES)	Ki [1]	Activity [2]	Ki [3]	inhibition [4]	Ratio Ki (Homo sapiens)
CN(C)CCC[C@@]1(c2ccc(F)cc2)OCc2cc(CNC(=O)CCc3ccc(N=[N+]=[N-])c(I)c3)ccc21	38 nM	Active	9880 nM	> 99%	–
CN(C)CCC[C@@]1(c2ccc(F)cc2)OCc2cc(CNC(=O)c3ccc(N=[N+]=[N-])c(I)c3)ccc21	24 nM	Active	5700 nM	> 99%	–
COC(=O)[C@@H]1C2CCC(C[C@@H]1c1ccc(Cl)cc1)N2CCCCc1ccc(N=[N+]=[N-])c(I)c1 (some centres undefined)	–	Active	–	–	–
CN(CCC[C@@]1(c2ccc(F)cc2)OCc2cc(C#N)ccc21)CCc1ccc(N=[N+]=[N-])c(I)c1	227 nM	Active	3810 nM	30%	17
